Measured values reported in patent US20260345572A1, “PHARMACEUTICAL FORMULATIONS WITH ACTIVITY INHIBITING HISTONE METHYLTRANSFERASES FOR THE TREATMENT OF NEOPLASTIC DISEASES” (Ente Ospedaliero Specializzato in Gastroenterologia …, priority 2022, published 2026).

Columns and labels:
HR-deficient cell lines = details: previously described; cited from earlier work
[1] = test system: colorectal cancer stem cells; experiment: Clonogenic assay; format: cell-based, human; details: FIG. 3C; EM127 + Oxaliplatin, 5-Fluorouracil or Irinotecan 10 μM
Description: (§1) In compliance with Art 170bis, Paragraph 3 C.P.I., it is hereby certified that: • The colorectal cancer stem cells used at the base of the invention object of the present application have been isolated from patients, and the aforementioned cells were obtained following the free and informed consent to their collection and use expressed by the person from whom said material has been collected, under the regulations in force; and • C57BL/6 mice for the AOM/DSS murine model of colorectal cancer were not genetically modified.
For the clonogenic assay, previously dissociated colorectal cancer tumorspheres were plated in triplicate using 500 cells per experimental point and resuspended in 0.3% agarose on a 0.5% agarose layer. Subsequently, they were treated with EM127 and chemotherapeutic compounds.

[2] = test system: PANC1, SW80, AGS, N87, HGC-27 cells; experiment: Cell death and viability, FIG. 6 panel of cell lines; format: cell-based, human; details: 72 h
Method: (§2) The human cell lines HT29, HCT116, SW480, MDA-MB-231, MDA-MB-468, HGC-27, and PANC1 were cultured in DMEM culture medium, supplemented with 10% fetal bovine serum (FBS); N87, AGS and KATO III were cultured in RPMI culture medium supplemented with 10% FBS; CACO2 were cultured in DMEM culture medium, supplemented with 20% FBS and nonessential amino acids. All cell lines were cultured in the presence of 1% antibiotics (Penicillin and Streptomycin), at 37 °C in an atmosphere of 5% CO2 and always maintained in a subconfluence state.
Cell viability analysis was performed by using WST-1 kit (Roche), allowing to measure viable cell metabolic activity. In short, the quantitation of mitochondrial dehydrogenase activity is assessed by soluble tetrazolium salt ([…], colorless) conversion into its corresponding product, formazane (colored). The quantitative assessment of salt conversion into its colored form is then performed by spectrophotometrically calculating absorption at 450 nm. […]
Analysis of the percentage of cells undergoing programmed death, referred to as apoptosis, was performed by Annexin V assay. The concentrations of live cells, cells in early apoptosis, in total apoptosis and dead cells were measured with Muse Annexin V and Dead Cell Reagent kit (Luminex). […] After 20 min incubation, fluorescence is read with Guava® Muse® Cell Analyzer. […]

AGS gastric cancer cells [3] = experiment: Cell viability (WST-1); format: cell-based, human
Method: as §2
(§3) Cell viability analysis was performed by using WST-1 kit (Roche), allowing to measure viable cell metabolic activity. In short, the quantitation of mitochondrial dehydrogenase activity is assessed by soluble tetrazolium salt ([…], colorless) conversion into its corresponding product, formazane (colored). The quantitative assessment of salt conversion into its colored form is then performed by spectrophotometrically calculating absorption at 450 nm. Substrate conversion levels are therefore proportional to enzymatic activity which, in turn, represents a marker of cell viability and proliferation.

[4] = test system: SW480 colorectal cancer cells; experiment: Cell viability (WST-1); format: cell-based, human
Method: as §2, §3

[5] = test system: Caco2 colorectal cancer cells; experiment: Cell viability (WST-1); format: cell-based, human; details: FIG. 1A; EM127 72 h + Oxaliplatin, 5-Fluorouracil or Irinotecan 10 μM for the last 24 h; vs chemotherapeutic compound alone
Method: as §2, §3

N87 gastric cancer cells = experiment: Cell viability (WST-1); format: cell-based, human
Method: as §2, §3

MDA-MB-468 cells = experiment: Cell viability (WST-1); format: cell-based, human; details: FIG. 7; EM127 alone; low SMYD3 protein levels
Method: as §2, §3

KATO III cells = experiment: Cell viability (WST-1); format: cell-based, human; details: FIG. 7; EM127 alone; low SMYD3 protein levels
Method: as §2, §3

[6] = test system: MDA-MB-231 breast cancer cells; experiment: Cell viability (WST-1); format: cell-based, human; details: FIG. 4; EM127 + chemotherapeutic compounds (Paclitaxel 10 μM, Oxaliplatin 10 μM, Doxorubicin 1 μM)
Method: as §2, §3

[7] = test system: PANC1 pancreatic cancer cells; experiment: Cell viability (WST-1); format: cell-based, human
Method: as §2, §3

[8] = test system: HGC-27 gastric cancer cells; experiment: Cell viability (WST-1); format: cell-based, human
Method: as §2, §3

HCT116 cells [9] = experiment: Cell viability (WST-1); format: cell-based, human; details: FIG. 5
Method: as §2, §3

HT29 cells = experiment: Cell viability (WST-1); format: cell-based, human; details: FIG. 5
Method: as §2, §3

[10] = test system: colorectal cancer stem cells; experiment: Migration assay (Boyden chamber); format: cell-based, human; details: FIG. 3B; EM127 + Oxaliplatin, 5-Fluorouracil or Irinotecan 10 μM
Description: as §1
To assess cell motility, colorectal cancer tumorspheres were suspended in 200 μl non-supplemented stem cell culture medium and plated in the top section of a Boyden culture chamber, which is separated from the bottom part by a polycarbonate membrane allowing cells to migrate. The underlying section contains 600 μl of stem cell medium supplemented with 20 ng/ml EGF and 10 ng/ml basic FGF and chemotherapeutic compounds.

[11] = test system: HCT116-derived tumor spheroids; experiment: LIVE/DEAD viability of tumorspheres; format: cell-based, human; details: FIG. 2; EM127 + Oxaliplatin or Irinotecan 10 μM
Method: The tumorspheres deriving from the continuous cell line HCT116 “HCT116-derived tumor spheroids” were obtained by using a suitable DMEM/F12 Advanced culture medium supplemented with 1× Glutamine, 1× Penicillin/streptomycin, 0.6% glucose, 1×B27, 1×N2, 20 ng/ml EGF, 10 ng/ml bFGF, and cultured in media surface-treated to ensure a very low cell adhesion.
To assess cell viability on HCT116-derived tumorspheres, LIVE/DEAD® Viability/Cytotoxicity Assay kit (Thermo Fisher) was used, allowing to discriminate live cells from dead ones with two probes measuring intracellular enzymatic activity and plasma membrane integrity. Tumorspheres were incubated with the reagent provided by the kit and then visualized with a fluorescence microscope. Live cells are stained with reagent calcein and generate a green fluorescence signal; dead cells are stained with ethidium homodimer, generating a red signal.

HCT116 cells [12] = experiment: Apoptotic cell percentage (Annexin V); format: cell-based, human; details: FIG. 1B; EM127 + chemotherapeutic compound (Oxaliplatin, 5-Fluorouracil or Irinotecan, 10 μM)
Method: as §2
(§4) Analysis of the percentage of cells undergoing programmed death, referred to as apoptosis, was performed by Annexin V assay. The concentrations of live cells, cells in early apoptosis, in total apoptosis and dead cells were measured with Muse Annexin V and Dead Cell Reagent kit (Luminex). 5×10^4 cells/mL were stained with the reagent provided by the kit. After 20 min incubation, fluorescence is read with Guava® Muse® Cell Analyzer. The test was performed on the following cell lines: HCT116, PANC1, SW480, MDA-MB-231, MCF7, AGS.

[13] = test system: colorectal cancer stem cells; experiment: Cancer stem cell viability; format: cell-based, human; details: FIG. 3A; EM127 + Oxaliplatin, 5-Fluorouracil or Irinotecan 10 μM
Description: as §1, §3

AGS gastric cancer cells [14] = experiment: Synergistic effect, nonviable/apoptotic cell population; format: cell-based, human; details: FIG. 9, >1 = synergistic
Method: (§5) Analysis of non-viable cell percentage was carried out by counting live cells and dead cells after staining with 0.01% Trypan Blue, a dye permeating cells only in the condition in which plasma membrane integrity is compromised. In short, after collecting the culture medium and the plate-adhering cells, detached by enzymatic treatment with 1% trypsin/EDTA, the pellet obtained by centrifuging was resuspended in an adequate volume of DPBS and 10 μl of cell suspension were diluted in an equal volume of Trypan blue. The counting was performed with a phase-contrast optical microscope, using a Burker chamber.
as §4

[15] = test system: MDA-MB-231 breast cancer cells; experiment: as above; format: cell-based, human; details: FIG. 9, >1 = synergistic
Method: as §5, §4

MCF7 breast cancer cells = experiment: as above; format: cell-based, human; details: FIG. 9, >1 = synergistic
Method: as §5, §4

[16] = test system: AOM/DSS murine model of colorectal cancer; experiment: AOM/DSS murine model of colorectal cancer; format: in vivo, C57BL/6 mice; details: FIG. 8; EM127 20 mg/kg + Irinotecan 20 mg/kg, intraperitoneally, 14 days; vs Irinotecan alone
Method: C57BL/6 mice were treated intraperitoneally with 12 mg/kg azoxymethane (AOM). Dextran sulfate sodium (DSS) was then administered, at 2% in water for five days, followed by two weeks with water only. This cycle was repeated thrice. At +10 days from the last DSS administration, the Inventors proceeded with the treatment with 20 mg/kg EM127 and/or 20 mg/kg Irinotecan, or with the carrier alone, intraperitoneally, for a total of 14 days.

[17] = FIG. 6C, EM127 + Olaparib 10 μM, 72 h, vs single compound
[18] = FIG. 4, EM127 + chemotherapeutic compounds (Paclitaxel 10 μM, Oxaliplatin 10 μM, Doxorubicin 1 μM)
[19] = EM127 72 h + 5-Fluorouracil 10 μM last 24 h
[20] = EM127 72 h + Irinotecan 10 μM last 24 h
[21] = EM127 72 h + Oxaliplatin 10 μM last 24 h
[22] = single-compound treatment, 72 h, increasing concentrations

O=C(c1cc(Cc2n[nH]c(=O)c3ccccc23)ccc1F)N1CCN(C(=O)C2CC2)CC1 [Olaparib]
sensitivity to treatment with Olaparib alone (HR-deficient cell lines): sensitive

O=C(NC1CCN(C(=O)CCl)CC1)c1cc(C2CC2)on1 [EM127]
ability to form colonies [1]: synergistic effect
cell death ([2]; FIG. 6A, B, EM127 + Olaparib 10 μM, vs single compound): increase of cell death
cell viability by HR status ([2]; FIG. 6C, combined treatment EM127 + Olaparib 10 μM): reduction of cell viability only for HR-proficient cell lines
cell viability (AGS gastric cancer cells [3]; [17]): reduction of cell viability
cell viability (AGS gastric cancer cells [3]; FIG. 10, EM127 + Rucaparib): synergistic effect
cell viability ([4]; FIG. 1A, EM127 72 h + Oxaliplatin, 5-Fluorouracil or Irinotecan 10 μM for the last 24 h, vs chemotherapeutic compound alone): reduces cell viability with a greater effect
cell viability ([4]; FIG. 6C, EM127 + Olaparib 10 μM, 72 h, vs single compound, cell line printed SW80): reduction of cell viability
cell viability ([4]; FIG. 10, EM127 + Rucaparib): synergistic effect
cell viability [5]: reduces cell viability with a greater effect
cell viability (N87 gastric cancer cells; [18]): synergistic effect
cell viability (N87 gastric cancer cells; [17]): reduction of cell viability
cell viability (N87 gastric cancer cells; FIG. 10, EM127 + Rucaparib): synergistic effect
cell viability (MDA-MB-468 cells): absence of effect
cell viability (KATO III cells): absence of effect
cell viability [6]: synergistic effect
cell viability [7, 17]: reduction of cell viability
cell viability ([7]; FIG. 10, EM127 + Rucaparib): synergistic effect
cell viability [8, 18]: synergistic effect
cell viability [8, 17]: reduction of cell viability
cell viability ([8]; FIG. 10, EM127 + Rucaparib): synergistic effect
reduction of cell viability (HCT116 cells [9]; [19]): about 50%
reduction of cell viability (HCT116 cells [9]; [20]): about 50%
reduction of cell viability (HCT116 cells [9]; [21]): about 50%
reduction of cell viability (HT29 cells; [19]): about 50%
reduction of cell viability (HT29 cells; [20]): about 50%
reduction of cell viability (HT29 cells; [21]): about 50%
ability to migrate [10]: synergistic effect
live and dead cells by immunofluorescence [11]: synergy
dead (apoptotic) cell percentage (HCT116 cells [12]): increased
cell viability [13]: synergistic effect
synergistic effect (AGS gastric cancer cells [14]; EM127 + Doxorubicin): higher than 1
synergistic effect (AGS gastric cancer cells [14]; EM127 + Paclitaxel): higher than 1
synergistic effect ([15]; EM127 + Doxorubicin): higher than 1
synergistic effect ([15]; EM127 + Paclitaxel): higher than 1
synergistic effect (MCF7 breast cancer cells; EM127 + Doxorubicin): higher than 1
synergistic effect (MCF7 breast cancer cells; EM127 + Paclitaxel): higher than 1
number of tumors at the level of the colon [16]: reduces the number of tumors

N[C@@H]1CCCC[C@H]1N.[Pt+2] [Oxaliplatin, reference compound]
reduction of cell viability (HCT116 cells [9]; [22]): about 50%
reduction of cell viability (HT29 cells; [22]): about 50%

CCc1c2c(nc3ccc(OC(=O)N4CCC(N5CCCCC5)CC4)cc13)-c1cc3c(c(=O)n1C2)COC(=O)[C@]3(O)CC [Irinotecan, reference compound]
reduction of cell viability (HCT116 cells [9]; [22]): about 50%
reduction of cell viability (HT29 cells; [22]): about 50%

O=c1[nH]cc(F)c(=O)[nH]1 [5-Fluorouracil, reference compound]
reduction of cell viability (HCT116 cells [9]; [22]): about 50%
reduction of cell viability (HT29 cells; [22]): about 50%
